Values of other authors, collected in patent US9072314B2, “Carotenoid-containing compositions and methods” (Mead Johnson Nutrition Company, priority 2007, dated 2015).

Columns and labels:
[1] = test system: H. pylori strains; details: strains in Japanese children, cited study

## CC[C@H]1OC(=O)[C@H](C)[C@@H](O[C@H]2C[C@@](C)(OC)[C@@H](O)[C@H](C)O2)[C@H](C)[C@@H](O[C@@H]2O[C@H](C)C[C@H](N(C)C)[C@H]2O)[C@](C)(OC)C[C@@H](C)C(=O)[C@H](C)[C@@H](O)[C@]1(C)O [clarithromycin]
[1]
  H. pylori strains tested that were resistant: 29%

## CC1=C(/C=C/C(C)=C/C=C/C(C)=C/C=C/C=C(C)/C=C/C=C(C)/C=C/C2=C(C)C(=O)C(O)CC2(C)C)C(C)(C)CC(O)C1=O (stereo not shown) [Astaxanthin, astaxanthin]
Versus Vitamin E
  antioxidant capacity relative to Vitamin E: 100-500 times
Versus beta-carotene
  antioxidant capacity relative to beta-carotene: 10 times

## Cc1ncc([N+](=O)[O-])n1CCO [metronidazole]
[1]
  H. pylori strains tested that were resistant: 24%
